The values below come from patent US12559492B2, “BRAF degraders” (C4 Therapeutics, Inc., priority 2020, dated 2026).

The target of the assay is BRAF^V600E protein (Homo sapiens, UniProt P15056, V600E). Briefly: HiBiT cellular BRAF V600E degradation assay. Format: cell-based. The settings on record: 24 h incubation; for DC50: A375.10 cells (HiBiT tag knocked in at N-terminal of BRAF V600E), concentration at which 50% of total cellular BRAF V600E is degraded; for Emax: read-out: HiBit 24 h Emax. (In general: HiBiT is a short tag that completes a luciferase, so light tracks the accessible tagged protein.)
Chain of BRAF^V600E protein (P15056 whole entry V600E): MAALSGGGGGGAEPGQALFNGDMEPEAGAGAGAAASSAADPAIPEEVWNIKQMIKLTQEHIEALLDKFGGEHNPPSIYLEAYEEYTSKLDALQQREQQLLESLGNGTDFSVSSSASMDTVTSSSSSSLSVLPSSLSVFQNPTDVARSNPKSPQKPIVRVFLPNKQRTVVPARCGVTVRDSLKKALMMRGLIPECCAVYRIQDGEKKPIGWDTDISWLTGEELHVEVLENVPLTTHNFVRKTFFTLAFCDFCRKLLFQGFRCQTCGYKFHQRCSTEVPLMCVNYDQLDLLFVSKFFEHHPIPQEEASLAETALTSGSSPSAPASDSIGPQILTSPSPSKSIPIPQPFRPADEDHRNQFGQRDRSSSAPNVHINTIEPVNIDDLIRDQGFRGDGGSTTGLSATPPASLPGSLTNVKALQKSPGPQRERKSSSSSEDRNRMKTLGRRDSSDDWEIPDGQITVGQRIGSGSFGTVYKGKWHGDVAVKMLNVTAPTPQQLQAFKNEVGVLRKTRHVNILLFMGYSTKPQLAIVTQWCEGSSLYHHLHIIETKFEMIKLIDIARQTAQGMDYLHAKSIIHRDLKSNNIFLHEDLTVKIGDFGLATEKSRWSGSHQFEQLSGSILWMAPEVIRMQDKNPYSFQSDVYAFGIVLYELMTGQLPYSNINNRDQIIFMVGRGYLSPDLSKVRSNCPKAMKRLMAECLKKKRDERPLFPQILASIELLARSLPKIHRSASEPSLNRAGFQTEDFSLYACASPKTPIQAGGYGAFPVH

The mark [1] stands for this setting: A375.10 cells, Emax = amount of residual protein remaining in the cell after compound treatment.

Each structure is given as a SMILES string.

As a reminder, the DC50 is the concentration giving 50% degradation. Read a high DC50 as a less potent degrader. As a reminder, the Emax is the maximal effect, on the per cent scale that the assay sets. With `CCN(C)S(=O)(=O)Nc1ccc(Cl)c(C(=O)c2c[nH]c3ncc(-c4cnc(N5CCN(C(=O)CC6(O)CCN(c7ccc(NC8CCC(=O)NC8=O)cc7F)CC6)CC5)nc4)cc23)c1F` (stereo not shown) [Example 185, 3-[6-chloro-3-[[ethyl(methyl)sulfamoyl]amino]-2-fluoro-benzoyl]-5-[2-[4-[2-[1-[4-[(2,6-dioxo-3-piperidyl)amino]-2-fluoro-phenyl]-4-hydroxy-4-piperidyl]acetyl]piperazin-1-yl]pyrimidin-5-yl]-1H-pyrrolo[2,3-b]pyridine], it took 6.48 nM to reach half-maximal degradation (DC50). Also, the maximum response (Emax) under setting [1] came out at 7.43%.
Compound `CCN(C)S(=O)(=O)Nc1ccc(F)c(C(=O)c2c[nH]c3ncc(-c4ccc(C5CCN(C(=O)CN6CCC(c7ccc(NC8CCC(=O)NC8=O)cc7)CC6)CC5)cc4)cc23)c1F` (stereo not shown) [Example A44, 5-[4-[1-[2-[4-[4-[(2,6-Dioxopiperidin-3-yl)amino]phenyl]piperidin-1-yl]acetyl]piperidin-4-yl]phenyl]-3-[3-[[ethyl(methyl)sulfamoyl]amino]-2,6-difluorobenzoyl]-1H-pyrrolo[2,3-b]pyridine] displayed a half-maximal degradation concentration (DC50) of 10.4 nM. For the same compound, the maximum response (Emax) under setting [1] is 9.52%.
`CCN(C)S(=O)(=O)Nc1ccc(F)c(C(=O)c2c[nH]c3ncc(-c4ccc(N5CCN(C(=O)CN6CCC(c7ccc(NC8CCC(=O)NC8=O)cc7)CC6)CC5)nc4)cc23)c1F` (stereo not shown) [Example A8, 5-[6-[4-[2-[4-[4-[(2,6-Dioxopiperidin-3-yl)amino]phenyl]piperidin-1-yl]acetyl]piperazin-1-yl]pyridin-3-yl]-3-[3-[[ethyl(methyl)sulfamoyl]amino]-2,6-difluorobenzoyl]-1H-pyrrolo[2,3-b]pyridine]: it took 8.18 nM to reach half-maximal degradation (DC50). Moreover, the Emax under setting [1] came out at 9.42%.
For `O=C1CCC(Oc2ccc(C3CCN(CC(=O)N4CC5(C4)CN(c4ccc(-c6cnc7[nH]cc(C(=O)c8c(F)ccc(NS(=O)(=O)N9CC[C@@H](F)C9)c8F)c7c6)cn4)C5)CC3)cc2)C(=O)N1` (stereo partly drawn) [Example A115, (3R)—N-[3-[5-[6-[2-[2-[4-[4-(2,6-dioxopiperidin-3-yl)oxyphenyl]piperidin-1-yl]acetyl]-2,6-diazaspiro[3.3]heptan-6-yl]pyridin-3-yl]-1H-pyrrolo[2,3-b]pyridine-3-carbonyl]-2,4-difluorophenyl]-3-fluoropyrrolidine-1-sulfonamide] the same measures were 204 nM and 15%.
For `CCN(C)S(=O)(=O)Nc1ccc(F)c(C(=O)c2c[nH]c3ncc(-c4ccc(CN5CCN(C(=O)CCCN6CCC(c7ccc(NC8CCC(=O)NC8=O)cc7)CC6)CC5)cc4)cc23)c1F` (stereo not shown) [Example A26, 5-[4-[[4-[4-[4-[4-[(2,6-Dioxopiperidin-3-yl)amino]phenyl]piperidin-1-yl]butanoyl]piperazin-1-yl]methyl]phenyl]-3-[3-[[ethyl(methyl)sulfamoyl]amino]-2,6-difluorobenzoyl]-1H-pyrrolo[2,3-b]pyridine; 2,2,2-trifluoroacetic acid] the same measures were 166 nM and 19%.
`CCN(C)S(=O)(=O)Nc1cc(F)cc(C(=O)c2c[nH]c3ncc(-c4ccc(N5CCN(C(=O)CC6(O)CCN(c7ccc(NC8CCC(=O)NC8=O)cc7F)CC6)CC5)nc4)cc23)c1F` (stereo not shown) [Example 207, 5-[6-[4-[2-[1-[4-[(2,6-dioxo-3-piperidyl)amino]-2-fluoro-phenyl]-4-hydroxy-4-piperidyl]acetyl]piperazin-1-yl]-3-pyridyl]-3-[3-[[ethyl(methyl)sulfamoyl]amino]-2,5-difluoro-benzoyl]-1H-pyrrolo[2,3-b]pyridine] had a DC50 of 1.23 nM. The Emax under setting [1] is 6.98%.
For `CCN(C)S(=O)(=O)Nc1ccc(F)c(C(=O)c2c[nH]c3ncc(-c4ccc(N5CCC(NC(=O)CN6CCC(c7ccc(OC8CCC(=O)NC8=O)cc7)CC6)CC5)nc4)cc23)c1F` (stereo not shown) [Example A61, 2-[4-[4-(2,6-Dioxopiperidin-3-yl)oxyphenyl]piperidin-1-yl]-N-[1-[5-[3-[3-[[ethyl(methyl)sulfamoyl]amino]-2,6-difluorobenzoyl]-1H-pyrrolo[2,3-b]pyridin-5-yl]pyridin-2-yl]piperidin-4-yl]acetamide;formic acid] the same measures were 40 nM and 16%.
On the same counts, the results for `CCN(C)S(=O)(=O)Nc1ccc(F)c(C(=O)c2c[nH]c3ncc(-c4ccc(CN5CCN(C(=O)CN6CCN(c7ccc(NC8CCC(=O)NC8=O)cc7)CC6)CC5)nc4)cc23)c1F` (stereo not shown) [Example A12, 5-[6-[[4-[2-[4-[4-[(2,6-Dioxopiperidin-3-yl)amino]phenyl]piperazin-1-yl]acetyl]piperazin-1-yl]methyl]pyridin-3-yl]-3-[3-[[ethyl(methyl)sulfamoyl]amino]-2,6-difluorobenzoyl]-1H-pyrrolo[2,3-b]pyridine] are 74 nM and 24%.
For `CCN(C)S(=O)(=O)Nc1ccc(F)c(C(=O)c2c[nH]c3ncc(-c4cnc(N5CCN(C(=O)CC6(O)CCN(c7ccc(NC8CCC(=O)NC8=O)cc7Cl)CC6)CC5)nc4)cc23)c1F` (stereo not shown) [Example 157, 5-[2-[4-[2-[1-[2-chloro-4-[(2,6-dioxo-3-piperidyl)amino]phenyl]-4-hydroxy-4-piperidyl]acetyl]piperazin-1-yl]pyrimidin-5-yl]-3-[3-[[ethyl(methyl)sulfamoyl]amino]-2,6-difluoro-benzoyl]-1H-pyrrolo[2,3-b]pyridine] the same measures were 6.19 nM and 8.52%.
As for `CCN(C)S(=O)(=O)Nc1cccc(C(=O)c2c[nH]c3ncc(-c4ccc(N5CCN(C(=O)CC6(O)CCN(c7ccc(NC8CCC(=O)NC8=O)cc7F)CC6)CC5)cc4)cc23)c1F` (stereo not shown) [Example 119, 5-[4-[4-[2-[1-[4-[(2,6-dioxo-3-piperidyl)amino]-2-fluoro-phenyl]-4-hydroxy-4-piperidyl]acetyl]piperazin-1-yl]phenyl]-3-[3-[[ethyl(methyl)sulfamoyl]amino]-2-fluoro-benzoyl]-1H-pyrrolo[2,3-b]pyridine], the half-maximal degradation concentration (DC50) was found to be 8.71 nM. Further, under setting [1], the maximal response (Emax) was determined as 10.5%.
On the same counts, the results for `CCN(C)S(=O)(=O)Nc1cccc(C(=O)c2c[nH]c3ncc(-c4cnc(N5CCN(C(=O)CN6CCC(c7ccc(NC8CCC(=O)NC8=O)cc7)CC6)CC5)nc4)cc23)c1F` (stereo not shown) [Example 96, 5-[2-[4-[2-[4-[4-[(2,6-dioxo-3-piperidyl)amino]phenyl]-1-piperidyl]acetyl]piperazin-1-yl]pyrimidin-5-yl]-3-[3-[[ethyl(methyl)sulfamoyl]amino]-2-fluoro-benzoyl]-1H-pyrrolo[2,3-b]pyridine] are 9.43 nM and 8.26%.
As to `CCN(C)S(=O)(=O)Nc1ccc(F)c(C(=O)c2c[nH]c3ncc(-c4cnc(N5CCN(C(=O)CC6(O)CCN(c7ccc(NC8CCC(=O)NC8=O)cc7F)CC6)CC5)cn4)cc23)c1F` (stereo not shown) [Example 187, 5-[5-[4-[2-[1-[4-[(2,6-dioxo-3-piperidyl)amino]-2-fluoro-phenyl]-4-hydroxy-4-piperidyl]acetyl]piperazin-1-yl]pyrazin-2-yl]-3-[3-[[ethyl(methyl)sulfamoyl]amino]-2,6-difluoro-benzoyl]-1H-pyrrolo[2,3-b]pyridine], half-maximal degradation (DC50) was put at 3.6 nM. The maximum response (Emax) under setting [1] was 7.8%.
For `CC(C)S(=O)(=O)Nc1ccc(F)c(C(=O)c2c[nH]c3ncc(-c4ccc(N5CCN(C(=O)CN6CCC(c7ccc(C8CCC(=O)NC8=O)cc7)CC6)CC5)nc4)cc23)c1F` (stereo not shown) [Example 14, N-[3-[5-[6-[4-[2-[4-[4-(2,6-dioxo-3-piperidyl)phenyl]-1-piperidyl]acetyl]piperazin-1-yl]-3-pyridyl]-1H-pyrrolo[2,3-b]pyridine-3-carbonyl]-2,4-difluoro-phenyl]propane-2-sulfonamide] the same measures were 8.56 nM and 3.41%.
On the same counts, the results for `CCN(C)S(=O)(=O)Nc1cccc(C(=O)c2c[nH]c3ncc(-c4ccc(N5CCN(C(=O)CC6(O)CCN(c7ccc(N8CCC(=O)NC8=O)cc7F)CC6)CC5)nc4)cc23)c1F` [Example 164, 5-[6-[4-[2-[1-[4-(2,4-dioxohexahydropyrimidin-1-yl)-2-fluoro-phenyl]-4-hydroxy-4-piperidyl]acetyl]piperazin-1-yl]-3-pyridyl]-3-[3-[[ethyl(methyl)sulfamoyl]amino]-2-fluoro-benzoyl]-1H-pyrrolo[2,3-b]pyridine] are 2.31 nM and 10.2%.
On the same counts, the results for `CCN(C)S(=O)(=O)Nc1ccc(F)c(C(=O)c2c[nH]c3ncc(-c4cnc(N5CC6(CC(C(=O)N7CCC(c8ccc(NC9CCC(=O)NC9=O)cc8)CC7)C6)C5)nc4)cc23)c1F` (stereo not shown) [Example 132, 5-[2-[6-[4-[4-[(2,6-dioxo-3-piperidyl)amino]phenyl]piperidine-1-carbonyl]-2-azaspiro[3.3]heptan-2-yl]pyrimidin-5-yl]-3-[3-[[ethyl(methyl)sulfamoyl]amino]-2,6-difluoro-benzoyl]-1H-pyrrolo[2,3-b]pyridine] are 18.2 nM and 12%.
Compound `CCN(C)S(=O)(=O)Nc1ccc(F)c(C(=O)c2c[nH]c3ncc(-c4cnc(N5CCN(C(=O)CN6CC[C@H](c7ccc(NC8CCC(=O)NC8=O)cc7)C(F)(F)C6)CC5)nc4)cc23)c1F` (stereo partly drawn) [Example 55, 5-[2-[4-[2-[(4R)-4-[4-[(2,6-dioxo-3-piperidyl)amino]phenyl]-3,3-difluoro-1-piperidyl]acetyl]piperazin-1-yl]pyrimidin-5-yl]-3-[3-[[ethyl(methyl)sulfamoyl]amino]-2,6-difluoro-benzoyl]-1H-pyrrolo[2,3-b]pyridine] registered a DC50 of 4.61 nM. For the same compound, the “HiBit 24 h Emax” value under setting [1] worked out at 6.57%.
With `CCC(C)S(=O)(=O)Nc1ccc(F)c(C(=O)c2c[nH]c3ncc(-c4ccc(N5CCN(C(=O)CN6CCC(c7ccc(NC8CCC(=O)NC8=O)cc7)CC6)CC5)nc4)cc23)c1F` (stereo not shown) [Example A29, N-[3-[5-[6-[4-[2-[4-[4-[(2,6-Dioxopiperidin-3-yl)amino]phenyl]piperidin-1-yl]acetyl]piperazin-1-yl]pyridin-3-yl]-1H-pyrrolo[2,3-b]pyridine-3-carbonyl]-2,4-difluorophenyl]butane-2-sulfonamide], the DC50 is 3.05 nM. For the same compound, the maximal effect (Emax) under setting [1] came to 10.9%.
